{"source": "patent US20150011588A1", "about": "“Novel formulation, omeprazole antacid complex-immediate release for rapid and sustained suppression of gastric acid” (priority 2003, published 2015)", "key": {"[1]": {"experiment": "clinical", "settings": "human, plasma, oral, 40 mg", "source_text": "Pharmacokinetic parameters disclosed herein include: (1) parameters obtained directly from the data without interpolation, including plasma omeprazole concentration, peak omeprazole plasma concentration (Cmax), and time to peak omeprazole plasma concentration (Tmax); (2) terminal elimination rate constant (kel) determined from a log-linear regression analysis of the terminal plasma omeprazole concentrations; (3) terminal elimination half-life (t1/2) calculated as 0.693/kel; (4) area under the omeprazole plasma concentration-time curve from time zero to time “t” (AUCo-t), calculated using the trapezodial rule with the plasma concentration at time “t” being the last measurable concentration; (5) area under the omeprazole plasma concentration-time curve from time zero to time infinity (AUC0-inf), calculated as AUC0-t+Ct/kel, where Ct is the last measurable plasma concentration and kel is the terminal elimination rate constant defined above.\nBlood samples (10 mL) were taken within 30 minutes predose and up to 12 hours postdose; eg, postdose at 5, 10, 15, 30, 45, 60, 90, 120, 180, 240, 300, 360 minutes, and up to 12 hours in some studies.\n(§1) This trial protocol is designed as a single-dose crossover trial. […] Each dose was followed by a 7-14 day washout. The same treatment was administered to all subjects in each trial period:\nFor the periods including omeprazole powder plus tablet administration, the subject received omeprazole powder administered directly onto the dorsal mid-tongue Immediately thereafter, subjects were given one chewable antacid tablet, which they began chewing. The subject continued to chew the tablet while mixing it with omeprazole powder, and carefully avoided swallowing the powder immediately. One minute after initiating chewing (and after completely swallowing trial medications), each subject drank 120 mL of water, swishing the oral contents before swallowing.\nPharmacokinetic evaluations include plasma omeprazole and esomeprazole concentration over time; and plasma omeprazole and esomeprazole C., Tmax, kel, T1/2, AUC(0-t), and AUC(0-inf)."}, "[2]": {"tested_on": "gastric acidity", "experiment": "SAN-15-CO1C trial: gastric pH monitoring, omeprazole powder with or without antacid", "assay_type": "in vivo, human", "settings": "omeprazole 40 mg, administered 1 hour pre-meal, 10 subjects", "procedure": "Pharmacodynamic parameters disclosed herein include: (1) mean gastric acid concentration; (2) onset time of gastric pH increase; (3) gastric pH over time; (4) length of time gastric pH is >4; (5) percentage (%) of time gastric pH is time pH>4 (in figures as “% time pH>4”); (6) median gastric pH; and (7) integrated gastric acidity, which is expressed as mM acid×time, (mmol acid×hr/L) is calculated as the cumulative time-weighted average of mean gastric acid concentration, as follows:\nas §1\nFor periods requiring a meal, subjects fasted for at least 10 hours and were allowed water ad libitum until 2 hours prior to administration. Gastric pH monitoring was recorded for up to 11 hours beginning at time zero. The standard breakfast was ingested over 30 minutes beginning 90 minutes after the initiation of pH monitoring.\nFor periods including dosing after a meal, subjects fasted for at least 10 hours. On Day 0, ninety minutes of probe pH monitoring was started prior to initiating ingestion of the standardized breakfast, which was eaten within 30 minutes. The pH monitoring continued for 9.5 hours after initiating ingestion of breakfast. […]"}}, "data": [{"compound": "COc1ccc2[nH]c([S+]([O-])Cc3ncc(C)c(OC)c3C)nc2c1", "note": "(stereo not shown) [Omeprazole Powder]", "values": [{"measurement": "AUC(0-inf)", "setting": "[1]", "result": 225, "unit": "ng·h/mL"}, {"measurement": "AUC(0-t)", "setting": "[1]", "result": 225, "unit": "ng·h/mL"}, {"measurement": "Cmax", "setting": "[1]", "result": 186, "unit": "ng/mL"}, {"measurement": "Median Integrated Gastric Acidity 0-210 min. Post-meal", "setting": "[2]", "result": 35, "unit": "mmol·h/L"}]}]}
